Source: ChEMBL document CHEMBL3045772, “Amide derivatives of [6-acyl-2-benzothiazolinon-3-yl] acetic acids as potential analgesic and anti-inflammatory compounds” (Med Chem Res, 2010)
The source made the active and inactive calls. The rule behind the calls is not given here.

Tests used:
[1] = system: Mus musculus; assay: Analgesic activity in Mus musculus Swiss albino (mouse) assessed as inhibition of p-benzoquinone-induced writhing at 100 mg/kg, po pretreated 60 min before p-benzoquinone challenge; type: functional
[2] = system: Mus musculus; assay: Gastrointestinal toxicity in Mus musculus Swiss albino (mouse) assessed as ratio of ulcer at 100 mg/kg, po measured after 2 hr; type: organism-based; set-up: dose 100 mg/kg, route oral; details: in vivo
[3] = system: Mus musculus; assay: Anti-inflammatory activity in Mus musculus Swiss albino (mouse) assessed as inhibition of carrageenan-induced edema at 100 mg/kg, po pretreated 60 min before carrageenan-challenge measured after 270 min; type: functional
[4] = system: Mus musculus; assay: Anti-inflammatory activity in Mus musculus Swiss albino (mouse) assessed as inhibition of carrageenan-induced edema at 100 mg/kg, po pretreated 60 min before carrageenan-challenge measured after 90 min; type: functional
[5] = molecular target: Prostaglandin G/H synthase 1 (Homo sapiens) (UniProt P23219); details: Blood, at 10 µM;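 also: human whole blood assay, COX-1 activity read out as TXB2 level by enzyme immunoassay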
Chain of Prostaglandin G/H synthase 1 (Homo sapiens) (P23219 whole entry): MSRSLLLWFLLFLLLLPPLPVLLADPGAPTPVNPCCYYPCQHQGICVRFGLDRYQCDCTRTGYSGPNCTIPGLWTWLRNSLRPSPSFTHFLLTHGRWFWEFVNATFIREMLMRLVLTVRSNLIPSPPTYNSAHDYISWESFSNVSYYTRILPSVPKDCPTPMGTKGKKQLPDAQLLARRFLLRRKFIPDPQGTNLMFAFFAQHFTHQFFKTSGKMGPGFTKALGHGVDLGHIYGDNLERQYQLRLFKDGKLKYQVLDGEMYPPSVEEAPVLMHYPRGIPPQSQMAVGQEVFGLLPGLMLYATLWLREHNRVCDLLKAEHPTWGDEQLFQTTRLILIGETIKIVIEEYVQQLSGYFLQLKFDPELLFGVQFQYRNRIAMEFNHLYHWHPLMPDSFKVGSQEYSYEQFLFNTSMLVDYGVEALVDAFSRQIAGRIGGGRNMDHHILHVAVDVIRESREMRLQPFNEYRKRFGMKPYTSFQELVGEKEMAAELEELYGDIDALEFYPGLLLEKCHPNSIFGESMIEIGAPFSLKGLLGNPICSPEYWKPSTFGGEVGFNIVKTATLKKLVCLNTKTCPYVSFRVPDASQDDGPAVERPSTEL
Description: Inhibition of cyclooxygenase-1 in Homo sapiens (human) whole blood assessed as TXB2 level at 10 uM by EIA

[6] = molecular target: T1, Polyunsaturated fatty acid 5-lipoxygenase (Homo sapiens) (UniProt P09917); assay: Inhibition of 5-LOX (unknown origin) at 10 uM
T1 sequence (whole entry): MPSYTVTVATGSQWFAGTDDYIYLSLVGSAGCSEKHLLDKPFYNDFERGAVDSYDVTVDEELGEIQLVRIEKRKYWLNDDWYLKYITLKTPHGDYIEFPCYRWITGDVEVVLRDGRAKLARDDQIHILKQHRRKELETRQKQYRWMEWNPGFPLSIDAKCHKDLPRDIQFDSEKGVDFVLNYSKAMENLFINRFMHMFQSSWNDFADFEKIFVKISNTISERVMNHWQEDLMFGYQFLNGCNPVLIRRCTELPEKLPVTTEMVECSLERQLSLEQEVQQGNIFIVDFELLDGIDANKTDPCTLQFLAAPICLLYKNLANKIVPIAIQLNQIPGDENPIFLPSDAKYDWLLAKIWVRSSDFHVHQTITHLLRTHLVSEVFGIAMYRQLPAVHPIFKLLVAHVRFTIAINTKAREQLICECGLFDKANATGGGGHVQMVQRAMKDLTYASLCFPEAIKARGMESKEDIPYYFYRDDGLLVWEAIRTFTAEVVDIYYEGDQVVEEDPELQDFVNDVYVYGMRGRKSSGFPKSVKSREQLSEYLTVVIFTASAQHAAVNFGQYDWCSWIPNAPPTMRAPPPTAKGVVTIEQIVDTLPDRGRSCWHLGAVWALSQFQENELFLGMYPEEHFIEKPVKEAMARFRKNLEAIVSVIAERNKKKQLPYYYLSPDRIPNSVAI

[7] = system: Mus musculus; assay: Anti-inflammatory activity in Mus musculus Swiss albino (mouse) assessed as inhibition of carrageenan-induced edema at 100 mg/kg, po pretreated 60 min before carrageenan-challenge measured after 180 min; type: functional
[8] = molecular target: T2, Prostaglandin G/H synthase 2 (Homo sapiens) (UniProt P35354); details: Blood, at 10 µM;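 also: human whole blood COX-2 activity read out as PGE2 level measured by enzyme immunoassay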
T2 sequence (whole entry): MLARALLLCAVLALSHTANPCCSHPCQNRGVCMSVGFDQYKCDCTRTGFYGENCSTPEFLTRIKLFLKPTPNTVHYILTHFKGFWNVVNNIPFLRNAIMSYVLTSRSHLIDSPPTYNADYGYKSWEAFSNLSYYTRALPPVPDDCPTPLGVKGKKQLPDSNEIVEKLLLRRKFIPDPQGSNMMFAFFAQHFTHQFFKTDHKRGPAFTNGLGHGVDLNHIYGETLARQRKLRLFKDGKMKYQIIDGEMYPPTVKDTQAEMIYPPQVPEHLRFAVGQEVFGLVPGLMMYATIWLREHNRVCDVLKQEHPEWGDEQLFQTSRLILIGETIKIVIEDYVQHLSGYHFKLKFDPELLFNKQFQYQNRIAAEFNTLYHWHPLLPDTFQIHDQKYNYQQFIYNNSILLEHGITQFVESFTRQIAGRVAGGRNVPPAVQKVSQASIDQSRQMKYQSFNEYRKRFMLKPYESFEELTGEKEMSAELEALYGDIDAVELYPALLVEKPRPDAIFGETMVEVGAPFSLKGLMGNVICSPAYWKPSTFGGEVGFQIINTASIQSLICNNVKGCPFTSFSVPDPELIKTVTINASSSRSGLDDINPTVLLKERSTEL
Description: Inhibition of cyclooxygenase-2 in Homo sapiens (human) whole blood assessed as PGE2 level at 10 uM by EIA

[9] = system: Mus musculus; assay: Anti-inflammatory activity in Mus musculus Swiss albino (mouse) assessed as inhibition of carrageenan-induced edema at 100 mg/kg, po pretreated 60 min before carrageenan-challenge measured after 360 min; type: functional

SMILES | inhibition in vivo at 100 mg/kg [1] | Activity [2] | inhibition [3] | inhibition [4] | inhibition [5] | inhibition [6] | inhibition [7] | inhibition [8] | inhibition [9] | inhibition in vivo at 100 mg/kg [3] | inhibition in vivo at 100 mg/kg [4] | inhibition in vivo at 100 mg/kg [7] | inhibition in vivo at 100 mg/kg [9] | inhibition [1]
CC(=O)Oc1ccccc1C(=O)O [ASPIRIN] | 50.1% | Toxic |  |  |  |  |  |  |  |  |  |  |  | 
Cc1cccc(NC(=O)Cn2c(=O)sc3cc(C(=O)c4ccccc4Cl)ccc32)n1 | 15.9% | Non-toxic | inactive | inactive | 9.84% | 28% | inactive | 2.21% | inactive |  |  |  |  | 
O=C(Cn1c(=O)sc2cc(C(=O)c3ccccc3)ccc21)Nc1cccc(Cl)c1 | 23.1% | Non-toxic |  |  | inactive | 46% |  | inactive |  | 10.8% | 5.6% | 10.7% | 8% | 
O=C(Cn1c(=O)sc2cc(C(=O)c3ccccc3Cl)ccc21)Nc1ccccc1 | 20.6% | Non-toxic |  |  | 3.42% | 16% |  | inactive |  | 10.9% | 5.3% | 11% | 10.5% | 
O=C(Cn1c(=O)sc2cc(C(=O)c3ccccc3)ccc21)Nc1ccccn1 |  | Non-toxic | inactive | inactive | 49.8% | inactive | inactive | inactive | inactive |  |  |  |  | inactive
O=C(Cn1c(=O)sc2cc(C(=O)c3ccccc3)ccc21)Nc1ccccc1 | 17.3% | Non-toxic |  |  | 40.4% | 6% |  | 1.47% |  | 12.5% | 3.6% | 3.5% |  | 
O=C(Cn1c(=O)sc2cc(C(=O)c3ccccc3Cl)ccc21)Nc1ccccn1 | 15.5% | Non-toxic | inactive | inactive | 45.2% | 3% | inactive | 28.9% | inactive |  |  |  |  | 
Cc1cccc(NC(=O)Cn2c(=O)sc3cc(C(=O)c4ccccc4)ccc32)n1 |  | Toxic | inactive | inactive | inactive | 26% | inactive | inactive | inactive |  |  |  |  | inactive
O=C(Cn1c(=O)sc2cc(C(=O)c3ccccc3Cl)ccc21)Nc1ccc(Cl)cc1 | 47.3% | Non-toxic |  |  | 39.2% | inactive |  | 53.1% |  | 31.9% | 25.8% | 28.4% | 33.2% | 
Cc1ccnc(NC(=O)Cn2c(=O)sc3cc(C(=O)c4ccccc4)ccc32)c1 |  | Toxic | inactive | inactive | 50% | 11% | inactive | 6.83% | inactive |  |  |  |  | inactive
Cc1ccnc(NC(=O)Cn2c(=O)sc3cc(C(=O)c4ccccc4Cl)ccc32)c1 | 8.1% | Toxic |  |  | 10.1% | 11% |  | inactive |  | 5.1% | 3.8% | 3.5% | 3.7% | 
Cc1cccc(NC(=O)Cn2c(=O)sc3cc(C(=O)c4ccccc4F)ccc32)n1 | 22.2% | Non-toxic |  |  | 28% | 20% |  | 12.6% |  | 1.2% | 1.7% | 3.7% | 2.3% | 
Cc1ccnc(NC(=O)Cn2c(=O)sc3cc(C(=O)c4ccccc4F)ccc32)c1 | 27% | Toxic |  |  | 1.98% | 19% |  | inactive |  | 6.1% | 2.8% | 6.8% | 4.6% | 
CS(=O)(=O)c1ccc(-c2cc(Br)sc2-c2ccc(F)cc2)cc1 |  |  |  |  | 100% |  |  |  |  |  |  |  |  | 
O=C(Cn1c(=O)sc2cc(C(=O)c3ccccc3Cl)ccc21)Nc1cccc(Cl)c1 | 41.8% | Non-toxic |  |  | 7.27% | 35% |  | inactive |  | 30.4% | 23.9% | 22% | 31.3% | 
O=C(Cn1c(=O)sc2cc(C(=O)c3ccccc3F)ccc21)Nc1ccccc1 | 26.8% | Non-toxic |  |  | 5.61% | 24% |  | inactive |  | 22.6% | 11.3% | 23.5% | 19.5% | 
O=C(Cn1c(=O)sc2cc(C(=O)c3ccccc3F)ccc21)Nc1ccccn1 | 18.7% | Non-toxic | inactive | inactive | 17.8% | inactive | inactive | inactive | inactive |  |  |  |  | 
O=C(Cn1c(=O)sc2cc(C(=O)c3ccccc3F)ccc21)Nc1ccc(Cl)cc1 | 54.3% | Non-toxic |  |  | 10.4% | inactive |  | inactive |  | 30.3% | 25.9% | 29% | 31.7% | 
O=C(Cn1c(=O)sc2cc(C(=O)c3ccccc3F)ccc21)Nc1cccc(Cl)c1 | 49.9% | Non-toxic |  |  | 20.5% | 31% |  | 19.3% |  | 25.5% | 15.8% | 18.4% | 28.2% | 
O=C(Cn1c(=O)sc2cc(C(=O)c3ccccc3)ccc21)Nc1ccc(Cl)cc1 | 26.5% | Non-toxic |  |  | inactive | inactive |  | 23.1% |  | 22.9% | 6.6% | 15.2% | 16.5% | 
